Measured values from publication PMC6202246 (Nature chemical biology, 2018).

Tested on: BRD2BD1, BRD2BD2, BRD3BD1, BRD3BD2, BRD4BD1, BRD4BD2 EGFP reporters
Test: EGFP/mCherry reporter assay across individual BET bromodomains
Type: cell-based, human
Details: BRD2/3/4 BD1 and BD2 reporter cells, 5 h

Cc1sc2c(c1C)C(c1ccc(Cl)cc1)=N[C@@H](CC(=O)NCCCCCCCCNC(=O)COc1cccc3c1C(=O)N(C1CCC(=O)NC1=O)C3=O)c1nnc(C)n1-2 (stereo partly shown) [dBET6]
activity profile across BET bromodomain reporters: activity on most bromodomains
